Laboratory results taken from patent publication US7667022B2, “Promoter for high-throughput screening for inhibitors against Mycobacteria under low carbon conditions” (Council of Scientific & Industrial Research, priority 2003, dated 2010).

System: Mycobacterium smegmatis, mc^2155
Experiment: Percent inhibition of growth of liquid culture (optical density vs control without antibiotic) at 2% or 0.02% glucose
Assay type: cell-based
Conditions: for % inhibition of growth at 0.02% Glucose: 0.02% Glucose (starved)

## NNC(=O)c1ccncc1 [Isoniazide]
0.8 μgm/ml
  % inhibition of growth at 0.02% Glucose: 12%
  % inhibition of growth at 2% Glucose: 33%
1.6 μgm/ml
  % inhibition of growth at 0.02% Glucose: 30%
  % inhibition of growth at 2% Glucose: 70%
3.2 μgm/ml
  % inhibition of growth at 0.02% Glucose: 70%
  % inhibition of growth at 2% Glucose: 90%
6.4 μgm/ml
  % inhibition of growth at 0.02% Glucose: 78%
  % inhibition of growth at 2% Glucose: 96%

## CO[C@H]1/C=C/O[C@@]2(C)Oc3c(C)c(O)c4c(O)c(c(/C=N/N5CCN(C)CC5)c(O)c4c3C2=O)NC(=O)/C(C)=C\C=C\[C@H](C)[C@H](O)[C@@H](C)[C@@H](O)[C@@H](C)[C@H](OC(C)=O)[C@@H]1C [Rifampicin]
0.25 μgm/ml
  % inhibition of growth at 0.02% Glucose: 9%
  % inhibition of growth at 2% Glucose: 39%
0.5 μgm/ml
  % inhibition of growth at 0.02% Glucose: 17%
  % inhibition of growth at 2% Glucose: 58%
1.0 μgm/ml
  % inhibition of growth at 0.02% Glucose: 29%
  % inhibition of growth at 2% Glucose: 70%
2.0 μgm/ml
  % inhibition of growth at 0.02% Glucose: 68%
  % inhibition of growth at 2% Glucose: 89%
Stationary or starved state
  reduction of inhibition of growth in the presence of the promoter under a stationary or a starved state: about 20%

## CC[C@@H](CO)NCCN[C@@H](CC)CO [Ethambutol]
0.15 μgm/ml
  % inhibition of growth at 0.02% Glucose: 37%
  % inhibition of growth at 2% Glucose: 44%
0.31 μgm/ml
  % inhibition of growth at 0.02% Glucose: 66%
  % inhibition of growth at 2% Glucose: 85%
0.63 μgm/ml
  % inhibition of growth at 0.02% Glucose: 68%
  % inhibition of growth at 2% Glucose: 91%
1.25 μgm/ml
  % inhibition of growth at 0.02% Glucose: 72%
  % inhibition of growth at 2% Glucose: 93%
